Ki data for two molecules are collected here from paper PMC7105311, “Structure and function of Bs164 β-mannosidase from Bacteroides salyersiae the founding member of glycoside hydrolase family GH164” (The Journal of Biological Chemistry, 2019).

In the test the target is T1, Bs164 (Bacteroides salyersiae, UniProt I9SUA3).
T1 construct: gene HMPREF1071_03408; tag cut by 3C protease for kinetics, His6-tagged for crystals
T1 sequence (I9SUA3 22-673): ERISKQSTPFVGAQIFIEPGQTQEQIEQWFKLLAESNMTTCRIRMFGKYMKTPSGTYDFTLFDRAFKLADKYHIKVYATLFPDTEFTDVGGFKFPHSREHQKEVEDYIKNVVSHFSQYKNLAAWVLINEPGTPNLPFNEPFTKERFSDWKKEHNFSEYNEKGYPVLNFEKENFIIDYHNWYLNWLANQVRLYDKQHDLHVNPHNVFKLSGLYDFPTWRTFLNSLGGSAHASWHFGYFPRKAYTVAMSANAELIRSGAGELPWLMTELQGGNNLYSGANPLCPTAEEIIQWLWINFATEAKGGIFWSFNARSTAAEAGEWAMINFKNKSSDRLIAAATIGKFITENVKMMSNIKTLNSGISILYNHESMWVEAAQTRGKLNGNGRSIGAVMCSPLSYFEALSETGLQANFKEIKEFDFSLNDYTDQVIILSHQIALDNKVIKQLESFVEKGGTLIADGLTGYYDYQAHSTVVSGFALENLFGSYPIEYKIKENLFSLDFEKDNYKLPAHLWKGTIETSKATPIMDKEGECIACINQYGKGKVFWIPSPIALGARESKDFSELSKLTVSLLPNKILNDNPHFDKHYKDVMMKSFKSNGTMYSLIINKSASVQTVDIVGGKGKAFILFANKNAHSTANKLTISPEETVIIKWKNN
In words: inhibition of pNP β-Man hydrolysis, absorbance, competitive model fit. The format is biochemical. From the text: inhibition of pNP β-Man hydrolysis, absorbance, competitive model fit on Bs164 | Mannoimidazole and noeuromycin act as competitive inhibitors of Bs164 with inhibition constants (Ki)

Like-named read-outs stand apart in the source and are kept apart here.

Turning to `OC[C@@H]1[C@@H](O)[C@H](O)[C@H](O)c2nccn21` [mannoimidazole], the Ki (commonly a measure of affinity in units of concentration, obtained from inhibition or displacement) amounted to 470 ± 60 µM. Regarding `OC[C@H]1CN[C@@H](O)[C@@H](O)[C@@H]1O` [noeuromycin], the affinity (competitive, substrate pNP β-Man, 80 mM MES pH 5.5, 160 mM NaCl, 25 °C, crystal structure 2.06 Å, -1 subsite), expressed as Ki, was 0.34 ± 0.04 µM.
